Earlier results on one compound are cited in patent publication US10314914B2, “Iodophor composition and methods of use” (Veloce BioPharma, LLC, priority 2015, dated 2019).

Molecules are shown by their SMILES.

The conditions of the data set: 50% solution of DMSO in water.

Regarding `C[C@]12CCC(=O)C=C1CC[C@@H]1[C@@H]2[C@@H](O)C[C@@]2(C)[C@H]1CC[C@]2(O)C(=O)CO` [hydrocortisone], the rate of penetration entry is listed as “markedly enhanced”.
